# Legend:
# M1PDH = M1PDH (Staphylococcus aureus, UniProt P99140); assay: in vitro M1PDH enzymatic assay (NADH optical density at 340 nm); format: biochemical; conditions: fructose-6-phosphate and NADH, or Mtl-1-phosphate and NAD as substrates
# Description: To measure an in vitro M1PDH enzyme activity, a change in concentration of NADH according to an enzyme activity was observed through a change in optical density at 340 nm using fructose-6-phosphate and NADH, or Mtl-1-phosphate and NAD as substrates.
# [1] = system: bacteria infected into macrophages; assay: macrophage infection model, viability of bacteria in the presence of mannitol; format: cell-based, Staphylococcus aureus; conditions: compound and mannitol used together; after 18 hours of infection
# Description: In addition, to confirm an inhibitory effect in a host cell, a macrophage infection model was used.
# bacteria [2] = assay: viability of bacteria by optical density at 600 nm; format: cell-based; conditions: change in concentration of the compound; OD 600 nm
# mannitol metabolism = mannitol metabolism inhibition, phenol red colour change in mannitol medium; format: cell-based; conditions: medium containing 27 mM of mannitol and phenol red
# Method: When bacteria were cultured in a medium containing 27 mM of mannitol and phenol red, the mannitol was metabolized to produce fructose and reduce pH of the medium, thereby changing a color of the phenol red to yellow. However, since the phenol red was not changed in color to keep the medium red by inhibiting the mannitol metabolism, an inhibitor showing an mannitol metabolism inhibitory effect was found using such a principle (FIG. 11A).
# bacteria [3] = assay: chemical toxicity assay (growth of bacteria); format: cell-based
SMILES,inhibition of M1PDH activity (M1PDH),SA viability in macrophages [1],viability of bacteria (bacteria [2]),mannitol metabolism inhibitory effect (mannitol metabolism),inhibition of growth of bacteria (bacteria [3])
"Cc1c(O)c(O)cc2c1CC=C1[C@@]2(C)CC[C@@]2(C)C3C[C@](C)(C(=O)O)CC[C@]3(C)CC[C@]12C (stereo partly drawn) [Compound 5, (2R,4aS,6aS,6aS,14aS,14bR)-10,11-dihydroxy-2,4a,6a,6a,9,14a-hexamethyl-3,4,5,6,8,13,14,14b-octahydro-1H-picene-2-carboxylic acid]",inhibiting an activity of M1PDH,decrease in SA viability in a macrophage,decrease in viability,–,–
"Cc1nn(-c2ccccc2)c2c1C(c1ccc([N+](=O)[O-])cc1)C(C#N)=C(N)O2 (stereo not drawn) [Compound 10, 6-amino-3-methyl-4-(4-nitrophenyl)-1-phenyl-1,4-dihydropyrano[2,3-c]pyrazole-5-carbonitrile]",inhibited M1PDH activity,–,–,inhibiting only the mannitol metabolism,not inhibiting growth of bacteria
"Nc1c(-c2ccc3ccccc3n2)c2ccc([N+](=O)[O-])cc2c(=O)n1Cc1ccccc1 [Compound 27, 3-amino-2-benzyl-7-nitro-4-(2-quinolyl)-1,2-dihydroisoquinolin-1-one]",inhibited M1PDH activity,–,–,inhibiting only the mannitol metabolism,not inhibiting growth of bacteria
"O=C(NC(=O)c1ccc(Oc2ccc(Cl)cc2)c([N+](=O)O)c1)Nc1ccccc1C(F)(F)F [Compound 31, N-[4-(4-chlorophenoxy)-3-nitrobenzoyl]-N′-[2-(trifluoromethyl)phenyl]urea]",inhibited M1PDH activity,–,–,inhibiting only the mannitol metabolism,not inhibiting growth of bacteria
"COc1nc(NC(=O)NS(=O)(=O)c2ccccc2C(F)(F)F)nc(C23CC4CC(CC(C4)C2)C3)n1 [Compound 26, 2-(1-adamantyl)-4-methoxy-6-{[({[2-(trifluoromethyl)phenyl]sulfonyl}amino)carbonyl]amino}-1,3,5-triazine]",inhibited M1PDH activity,–,–,inhibiting only the mannitol metabolism,not inhibiting growth of bacteria
